Results published in paper PMC6121260, “Sulfated Metabolites of Flavonolignans and 2,3-Dehydroflavonolignans: Preparation and Properties” (International Journal of Molecular Sciences, 2018).
Marks after values point to notes of the source that are not given here.

Assays:
[1] = Folin–Ciocalteu reagent (FCR) reduction; format: biochemical; conditions: Folin–Ciocalteau reagent reduction, gallic acid equivalents, mean ± standard error
Protocol: (§1) N,N-dimethyl-p-phenylenediamine (DMPD) and 2,2′-azino-bis(3-ethylbenzothiazolin-6-sulfonic acid (ABTS) cation radical scavenging and ferric reducing antioxidant power (FRAP) were measured using kits from Bioquochem (Llanera-Asturias, Spain). Antiradical activity by 2,2-diphenyl-1-picrylhydrazyl radical scavenging assay, reducing capacity using Folin–Ciocalteau reagent (FCR), and anti-lipoperoxidant activity using inhibition of lipid peroxidation of rat liver microsomes induced by tert-butyl hydroperoxide were determined as described previously with modifications described in detail in our previous research.

[2] = system: NAD(P)/quinone oxidoreductase 1 (NQO1) activity in Hepa1c1c7 cells; assay: NQO1 activity in Hepa1c1c7 cells (Nrf2 pathway); format: cell-based, murine; conditions: 48 h; for NQO1 activity, fold versus control: 50 µM
Protocol: The murine hepatoma Hepa1c1c7 cell line (ECACC, Salisbury, UK) was cultured in minimum essential medium α (M0894, Sigma-Aldrich, St. Louis, MO, USA), supplemented with 2.2 g/L NaHCO3 and 10% heat- and charcoal-treated fetal bovine serum (Biochrom, Berlin, Germany), and maintained at 37 °C in a humidified atmosphere containing 5% CO2. For all experiments, cells were seeded onto 96-well plates at 1 × 10^4 cells/well. After 24 h of stabilization, cells were treated for 48 h with 0.1% (v/v) DMSO (negative control), 2.5 µM sulforaphane (positive control; Sigma-Aldrich, St. Louis, MO, USA), or with the tested compounds in fresh culture medium. After the treatment, the activity of NQO1 was determined spectrophotometrically as described previously. Cells were washed with phosphate-buffered saline (PBS) and lysed with 75 µL of digitonin solution (0.8 g/L digitonin, 2 mM EDTA, pH 7.8) by shaking on an orbital shaker for 20 min at room temperature. A part of the cell lysate (20 µL) was used to determine the protein content. The remaining lysate (55 µL) was mixed with 200 µL of 0.5 M Tris-Cl buffer containing 10% (w/v) bovine serum albumin, 1.5% (v/v) Tween-20, 7.5 mM FAD, 150 mM glucose-6-phosphate, 2 U/mL glucose-6-phosphate dehydrogenase (Roche Diagnostics, Mannheim, Germany), 50 mM NADP^+, 25 mM menadione, and 0.7 mM 3-(4,5-dimethylthiazol-2-yl)-2,5-diphenyltetrazolium bromide (MTT). The mixture was incubated for 5 min at room temperature and the reaction was stopped with 50 µL of dicumarol suspension (0.3 mM dicumarol, 5 mM potassium phosphate, 0.5% (v/v) DMSO). The absorbance of the reduced MTT corresponding to the activity of NQO1 was measured at 610 nm on a spectrophotometric plate reader. The absorbance values were normalized to the protein content and used for the calculation of fold changes versus the control.

[3] = DPPH radical scavenging; format: biochemical; conditions: mean ± standard error
Protocol: as §1

[4] = DMPD+ cation radical scavenging; format: biochemical; conditions: vitamin C equivalents, mean ± standard error
Protocol: as §1

[5] = Inhibition of lipoperoxidation (Lpx) induced by tert-butyl hydroperoxide; format: biochemical; conditions: rat liver microsomal membranes, mean ± standard error
Protocol: as §1

[6] = Log p, octan-1-ol / phosphate buffer partition; format: physicochemical; conditions: octan-1-ol / 6.6 mM phosphate buffer pH 7.4, 25 °C
Protocol: The hydrophobicity of the compounds was determined by measuring their partition coefficient P in a mixture of two immiscible phases—octan-1-ol and 6.6 mM phosphate buffer pH 7.4. Stock solutions (0.5 mM) were prepared in octan-1-ol (parent compounds) and in the buffer (sulfated compounds). The stock solutions (150 µL) were mixed with 150 µL of the immiscible phase in microcentrifuge tubes (1.5 mL); shaken for 2 h (750 rpm, 25 °C); and after incubation, the phases were separated. Water phases were diluted 1:1 with the mobile phase (acetonitrile/deionized water/HCO2H, 5:95:0.1; v/v) and analyzed by HPLC using the gradient G3 (see Section 3.1.3). Octan-1-ol phases were evaporated in the stream of air (70 °C), then dissolved in 10 µL of DMSO, and mixed with 90 µL of mobile phase and analyzed by HPLC. The log p values were calculated from the respective peak heights (h) using the formula log p = log(hoctanol/hbuffer). For comparison, log p values were calculated using the Molinspiration property engine v2016.10 (http://www.molinspiration.com, Molinspiration Cheminformatics, Slovensky Grob, Slovakia) (access on 26th October 2017).

[7] = Ferric reducing antioxidant power (FRAP); format: biochemical; conditions: equivalents of Fe^2+, mean ± standard error
Protocol: as §1

[8] = ABTS+ cation radical scavenging; format: biochemical; conditions: vitamin C equivalents, mean ± standard error
Protocol: as §1

[9] = target: T1, aryl sulfotransferase from rat liver (AST IV) (Rattus norvegicus, UniProt P17988); assay: Substrate specificity of AST IV (whole E. coli cells, p-NPS donor); format: in vitro ADME; design: key: +: isolated sulfated product(s) and/or release of p-nitrophenol (p-NP); –: no formation of p-NP and/or isolated sulfated products; conditions: whole E. coli cells expressing AST IV, 37 °C, 72 h
T1 construct: made in house; host or cells: E. coli BL21 (DE3) Gold (whole cells used as catalyst)
Protocol: The plasmid bearing astIV gene was kindly provided by Prof. L. Elling, RWTH Aachen, Germany. The enzyme was expressed in E. coli BL21 (DE3) Gold as described, with modifications reported in our previous work. Whole E. coli cells producing the enzyme, freshly prepared according to the literature, were employed in the biotransformation experiments as a catalyst.
Silybin, silybin A, silybin B, silychristin, and silydianin (separately, each 50 mg, 0.104 mmol) and p-nitrophenyl sulfate (p-NPS, 35 mg, 0.136 mmol; Sigma-Aldrich, St. Louis, MO, USA) were dissolved in 3 mL DMSO, and 2 g (wet based) of whole cells expressing AST IV resuspended in K-phosphate buffer (pH 7.5, 17 mL) were added. The reaction mixture was incubated on a rotary shaker at 37 °C for 24 h. The cells were then removed by centrifugation (30 min, 5000 rpm, 5404 R Eppendorf, Germany), a new portion of fresh cells (2 g in 15 mL, wet based, resuspended in K-phosphate buffer) were added to the supernatant and incubated for 24 h. This step was repeated once more with a total reaction time of 72 h. The reaction was monitored by HPLC and after 72 h, the reaction mixtures, containing the sulfated product(s), were purified by preparative HPLC employing Asahipak GS-310 20F (Shodex, Tokyo, Japan) column with isocratic elution with 100% methanol. The fraction containing the putative sulfated product(s) was evaporated, dissolved in 1 mL of 80% methanol, and loaded onto a Sephadex LH-20 column (15 g dry weight, 12 mm i.d.) packed and eluted with 80% methanol. Only one sulfated product was obtained; silybin B 20-O-sulfate (14.5 mg, 0.03 mmol, yield 25%), whose identity was confirmed by comparison with previously published data.

T1 sequence (P17988 whole entry): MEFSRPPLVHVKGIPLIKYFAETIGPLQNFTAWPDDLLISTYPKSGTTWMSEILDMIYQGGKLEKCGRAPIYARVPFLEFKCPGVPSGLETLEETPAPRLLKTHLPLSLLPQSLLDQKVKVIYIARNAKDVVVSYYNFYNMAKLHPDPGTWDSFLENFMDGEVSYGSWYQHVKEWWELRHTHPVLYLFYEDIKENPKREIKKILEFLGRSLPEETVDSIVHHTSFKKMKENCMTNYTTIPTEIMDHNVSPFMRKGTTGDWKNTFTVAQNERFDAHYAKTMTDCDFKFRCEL

Structure (SMILES) | FCR [GAE] [1] | FCR [GAE] ([1]; listed as silybin sulfates A) | NQO1 activity, fold versus control [2] [fold] | IC50 [3] [µM] | DMPD^+ [CE] [4] | IC50 [5] [µM] | logP at 2 h [6] | FRAP [Fe^2+] [7] | ABTS^+ [CE] [8] | Formation of p-NP [9] | FCR [GAE] ([1]; listed as silybin sulfates B) | NQO1 activity, fold increase compared with the control ([2]; 2.5 µM, positive control) [fold]
COc1cc([C@H]2Oc3cc([C@H]4Oc5cc(O)cc(O)c5C(=O)[C@@H]4O)ccc3O[C@@H]2CO)ccc1OS(=O)(=O)O [Silybin A 20-O-sulfate] | 0.08 ± 0.01 GAE | 0.08 | 1.2 | > 2500 | 0.98 ± 0.01 ^n CE | > 1000 | -1.65 | 0.01 ± 0.00 ^p Fe^2+ | 0.02 ± 0.00 CE | – | – | –
COc1cc(C2Oc3cc([C@H]4Oc5cc(O)cc(O)c5C(=O)[C@@H]4O)ccc3OC2CO)ccc1O (stereo partly shown) [Silybin A/B, Silybin] | – | – | – | – | – | – | – | – | – | + ^a | – | –
COc1cc([C@@H]2Oc3cc([C@H]4Oc5cc(O)cc(O)c5C(=O)[C@@H]4O)ccc3O[C@H]2CO)ccc1OS(=O)(=O)O [Silybin B 20-O-sulfate] | 0.16 ± 0.02 GAE | – | 0.9 | > 2500 | 0.99 ± 0.01 ^n CE | > 1000 | -2.34 | 0.01 ± 0.00 ^p Fe^2+ | 0.04 ± 0.00 CE | – | 0.16 | –
COc1cc(C2Oc3c(O)cc([C@H]4Oc5cc(O)cc(O)c5C(=O)[C@@H]4O)cc3C2CO)ccc1OS(=O)(=O)O (stereo partly shown) [Silychristin-19-O-sulfate] | 0.80 ± 0.11 ^m GAE | – | 1.3 | 587 ± 11 | 1.56 ± 0.08^o CE | 134 ± 2 | -2.25 | 0.05 ± 0.01 ^q Fe^2+ | 0.62 ± 0.03 ^k CE | – | – | –
Cc1c(C)c2c(c(C)c1O)CCC(C)(C(=O)O)O2 (stereo not shown) [Trolox, reference compound] | 0.33 ± 0.00 ^k GAE | – | – | 2.9 ± 0.1 | – | 32.7 ± 2.4 | – | – | – | – | – | –
C[S+]([O-])CCCCN=C=S (stereo not shown) [sulforaphane, reference compound] | – | – | – | – | – | – | – | – | – | – | – | 4.3
